Measured values: article PMC10318456, “Selective inhibitors of the PSEN1–gamma-secretase complex” (The Journal of Biological Chemistry, 2023)
Where “and” joins values, the source holds several entries; their conditions need not be identical. Equal entries are not always repeated.

What was measured:
[1] = target: T1, PSEN1 M233A–APH1A γ-secretase complex (Homo sapiens, UniProt P49768, M233A); assay: Aβ40 secretion, MEF cell pool restored with PSEN1 M233A–APH1A; format: cell-based; details: decimal comma; for IC50: PSEN1 M233A (TM5)–APH1A cell pool, N = 3 to 4, mean (95% CI)
T1 construct: expressed in transfected cells; host or cells: Psen1/2 double KO/Aph1ABC triple KO MEFs, pools without clonal selection
Description: (§1) We turned to experimental site–directed mutagenesis and selected a series of amino acids (Fig. 3) in the entrance channel for mutation to alanine. […] More importantly, they were all enzymatically active as shown by the secretion of Aβ40 in the supernatants of the cell cultures (Fig. 3B).
(§2) Conditional Psen1/2 double KO mice were crossed with conditional Aph1ABC triple KO mice ([29], [52], [58], [59]). At embryonic day 7.5, embryos were dissected and dissociated, and cells were plated in the presence of Dulbecco’s modified Eagle’s medium (DMEM)/F12 50% fetal calf serum (FCS) (Invitrogen). Primary MEFs were immortalized by transduction with LargeT antigen. Psen1/2 double KO/Aph1ABC triple KO MEFs were generated by transduction with a Cre-GFP–expressing adenoviral vector, and GFP-positive MEFs were sorted by fluorescence-activated cell sorting analysis. Psen1/2 Aph1ABC-deficient MEFs were maintained in DMEM/f12 10% FCS. To rescue γ-secretase expression, Psen1/2 double KO/Aph1ABC triple KO MEFs were transduced using Murine Stem Cell Virus retroviral vector system (pMSCV) viral vectors (Clontech) containing the human coding sequences of the different PSEN and APH1 homologs and the zeocin selection marker. An Internal Ribosome Entry Site sequence was cloned between the coding sequences for PSEN and APH1 to ensure co-expression of both proteins. Stable transfected cell lines were selected using 500-μg/ml zeocin (Invitrogen). Four different combinations were made: PSEN1 and APH1AL, PSEN1 and APH1B, PSEN2 and APH1AL, and PSEN2 and APH1B. These cell lines were transduced with pMSCV viral vectors (Clontech) expressing APP-C99-GFP-puromycin. […]
(§3) The number of plated cells and incubation times were determined in respect to linearity of Aβ peptide secretion, the dynamic range of Aβ peptide quantification in the medium, and sensitivity to dimethylsulfoxide (DMSO). […] The cell viability was assessed using the CellTiter-Glo Luminescent assay (Promega) that measures ATP production. […] We however measured five compounds at the Leuven site and noticed that absolute IC50 values were different (Fig. S2). […]

[2] = target: T2, PSEN1 I387A–APH1A γ-secretase complex (Homo sapiens, UniProt P49768, I387A); assay: Aβ40 secretion, MEF cell pool restored with PSEN1 I387A–APH1A; format: cell-based; details: decimal comma; for IC50: PSEN1 I387A (TM7)–APH1A cell pool, N = 3 to 4, mean (95% CI)
T2 construct: expressed in transfected cells; host or cells: Psen1/2 double KO/Aph1ABC triple KO MEFs, pools without clonal selection
Description: as §1, §2, §3

[3] = system: PSEN1 versus PSEN2 γ-secretase complexes; assay: Comparison of the four MEF cell lines: selectivity between γ-secretase complexes (IC50 ratios); format: cell-based, human
Text: Mouse embryonic fibroblast (MEF) cells deficient for the Psen and Aph1 genes (Psen1/2^−/−, Aph1ABC^−/−) were reconstituted with human PSEN1 or PSEN2 and with human APH1A or APH1B to generate four independent cell lines, each constitutively expressing exclusively one type of γ-secretase complex (Fig. S1A) ([19]). A human APP-C99-GFP reporter was introduced to enable the measurement of Aβ peptides in the conditioned media of the cells to monitor γ-secretase activity. The assay was established in a 96-well format.
GraphPad Prism 7 software was used to generate inhibition fitting curves (four-parameter logistic equation, nonlinear regression) and to determine IC50 and 95% CI values (Fig. S2). Selectivity values (IC50 ratios of PSEN1 versus PSEN2) above 10 are highlighted in red.
The number of plated cells and incubation times were determined in respect to linearity of Aβ peptide secretion, the dynamic range of Aβ peptide quantification in the medium, and sensitivity to dimethylsulfoxide (DMSO). […] MEF cells were plated in DMEM F12 supplemented with 10% FCS at 10,000 cells per well in 96-well clear bottom plates in the late afternoon and cultured for 16 h at 37 °C, 5% CO2. In the morning of the second day, the medium was replaced with 60 μl of DMEM/F12 supplemented with 2% FCS, and GSI or DMSO (controls) were added. Compounds were tested in serial dilutions with concentrations ranging from […] to 0.1 nM with 3-fold changes. The final concentration of DMSO in all wells was 0.2%. Plates were put in the incubator again at 37 °C, 5% CO2. After 8 h, the culture media were collected, and 30 μl was used to measure Aβ40 peptides. The cell viability was assessed using the CellTiter-Glo Luminescent assay (Promega) that measures ATP production. All screens were performed at one site, and reported IC50 values throughout the manuscript are from this site (Beerse) unless otherwise indicated.
GraphPad Prism 7 software (https://www.graphpad.com) was used to generate inhibition fitting curves (four-parameter logistic equation, nonlinear regression) and to determine IC50 values and 95% CI.

[4] = target: T3, PSEN1 I168A–APH1A γ-secretase complex (Homo sapiens, UniProt P49768, I168A); assay: Aβ40 secretion, MEF cell pool restored with PSEN1 I168A–APH1A; format: cell-based; details: decimal comma; for IC50: PSEN1 I168A (TM3)–APH1A cell pool, N = 3 to 4, mean (95% CI)
T3 construct: expressed in transfected cells; host or cells: Psen1/2 double KO/Aph1ABC triple KO MEFs, pools without clonal selection
Description: as §1, §2, §3

| IC50 [1] [µM] | IC50 [2] [µM] | IC50 [4] [µM] | IC50 fold change to WT ([4]; PSEN1 I168A–APH1A cell pool) | IC50 fold change to WT ([1]; PSEN1 M233A–APH1A cell pool) | IC50 fold change to WT ([2]; PSEN1 I387A–APH1A cell pool) | SMILES | selectivity for PSEN1 complexes versus PSEN2 complexes ([3]; IC50 ratios of PSEN1 versus PSEN2, MEF cell lines) [fold] | selectivity PSEN1–APH1B versus PSEN1–APH1A ([3]; MEF cell lines) [fold] | selectivity toward the different γ-secretase complexes ([3]; four MEF cell lines) [fold] |
| --- | --- | --- | --- | --- | --- | --- | --- | --- | --- |
| 0.462 | 0.283 | 0.015 | 0,511 fold |  |  | O=S(=O)(c1ccc(Cl)cc1)N1[C@H]2CC[C@@H]([C@H]1c1ccc(C(F)(F)F)cc1)[C@@H](O)C2 [(+)-9b] | > 250 | 4 |  |
| 0.449 | 0.882 | 0.043 |  | 2,658 fold | 5,225 fold and > 3 fold | C[C@H](NC(=O)Cc1cc(F)cc(F)c1)C(=O)N[C@H](C(=O)OC(C)(C)C)c1ccccc1 [DAPT] |  |  | < 10 |
